According to patent US20210171589A1, “TRUNCATED CARTILAGE-HOMING PEPTIDES AND PEPTIDE COMPLEXES AND METHODS OF USE THEREOF” (BLAZE BIOSCIENCE, INC., priority 2018, published 2021):
Bridge positions count the residues as written; N and C are the ends. Peptide text beside a SMILES is read from it.

Key:
porcine pepsin = porcine pepsin (Sus scrofa, UniProt P00791); assay: Peptide resistance to proteolytic digestion by pepsin; format: in vitro ADME; conditions: 50 U of porcine pepsin in simulated gastric fluid at pH 1.0, 30 minutes at 37° C.
porcine pepsin, sequence (P00791 60-385): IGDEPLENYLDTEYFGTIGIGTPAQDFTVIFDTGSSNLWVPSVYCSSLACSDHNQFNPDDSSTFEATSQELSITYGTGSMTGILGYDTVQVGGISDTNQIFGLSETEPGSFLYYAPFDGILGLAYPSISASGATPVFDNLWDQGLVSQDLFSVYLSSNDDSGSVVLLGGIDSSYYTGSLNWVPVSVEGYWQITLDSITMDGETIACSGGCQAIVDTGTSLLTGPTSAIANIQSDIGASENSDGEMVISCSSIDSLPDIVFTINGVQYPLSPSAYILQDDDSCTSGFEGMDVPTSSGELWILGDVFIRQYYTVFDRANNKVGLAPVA
Procedure: (§1) This example illustrates peptide stability under various stress conditions such as high temperature, low pH, reducing agents, and proteases. To determine resistance to high temperatures, cystine-dense peptides (CDPs) were incubated at 0.5 mM in PBS at 75° C. or 100° C. for 1 h and pelleted, and the supernatant was analyzed with reversed-phase chromatography (RPC). To determine resistance to proteolytic digestion, CDPs were mixed with 50 U of porcine pepsin, in simulated gastric fluid at pH 1.0, or 50 U of porcine trypsin in PBS, incubated for 30 minutes at 37° C. and analyzed with RPC. Oxidized and reduced forms (prepared through addition 10 mM DTT) were compared. Circular Dichroism spectroscopy was used in order to measure the secondary structure of peptides with a Jasco J-720W spectropolarimeter in a cell with a 1.0-mm path length, and CDPs were diluted into 20 mM phosphate buffer, pH 7.4, at a concentration of 15-25 μM. These conditions were expected to denature or degrade conventional globular proteins and many peptides. In TABLE 10, “high” resistance indicated a high amount of the peptide remained or was retained as unmodified under the given experimental conditions and “low” resistance indicated a low amount of the peptide remained or was retained unmodified under the given experimental conditions. […]

porcine trypsin = porcine trypsin (Sus scrofa, UniProt P00761); assay: Peptide resistance to proteolytic digestion by trypsin; format: in vitro ADME; conditions: 50 U of porcine trypsin in PBS, 30 minutes at 37° C.
porcine trypsin, sequence (P00761 9-231): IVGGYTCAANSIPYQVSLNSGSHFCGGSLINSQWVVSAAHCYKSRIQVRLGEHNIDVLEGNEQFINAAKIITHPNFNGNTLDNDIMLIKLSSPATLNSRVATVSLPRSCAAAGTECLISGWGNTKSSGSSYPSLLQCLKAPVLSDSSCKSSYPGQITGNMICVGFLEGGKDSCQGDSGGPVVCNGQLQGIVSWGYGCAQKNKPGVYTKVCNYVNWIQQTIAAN
Procedure: as §1

CC[C@H](C)[C@@H]1NC(=O)[C@@H]2CSSC[C@H](NC(=O)[C@H](CCCCN)NC(=O)[C@@H](NC(=O)[C@H](CC(N)=O)NC(=O)[C@@H](NC(=O)[C@@H]3CCCN3C(=O)[C@@H](NC(=O)CNC(=O)[C@H](CO)NC(=O)CN)C(C)C)[C@@H](C)CC)C(C)C)C(=O)N[C@@H](CCCNC(=N)N)C(=O)NCC(=O)N[C@@H](CO)C(=O)N[C@@H](CCCNC(=N)N)C(=O)N[C@@H](CC(=O)O)C(=O)N[C@H]3CSSC[C@H](NC(=O)[C@H](CCCCN)NC(=O)[C@H](CO)NC(=O)[C@H](CC(N)=O)NC1=O)C(=O)N[C@@H](Cc1c[nH]cn1)C(=O)N[C@H](C(=O)N[C@H](C(=O)N1CCC[C@H]1C(=O)O)[C@@H](C)O)CSSC[C@H](NC(=O)[C@@H]1CCCN1C(=O)[C@H](CC(=O)O)NC(=O)[C@H](CC(C)C)NC3=O)C(=O)N[C@@H](CCCCN)C(=O)N[C@@H](CCCCN)C(=O)N[C@@H](C)C(=O)NCC(=O)N[C@@H](CCSC)C(=O)N[C@@H](CCCNC(=N)N)C(=O)N[C@@H](Cc1ccccc1)C(=O)NCC(=O)N[C@@H](CCCCN)C(=O)N2 [compound 150] (H-GSGVPINVKCRGSRDCLDPCKKAGMRFGKCINSKCHCTP-OH; disulfide 10-30, 16-35, 20-37; N-terminus and C-terminus assumed)
Resistance to Pepsin (porcine pepsin): High | Resistance to Trypsin (porcine trypsin): High
